Experimental data from patent US6083973A, “Methods for inhibiting mucin secretion using RAR α selective antagonists” (Syntex (U.S.A.) Inc., priority 1999, dated 2000).

Experiments:
RXR receptors = details: cited from earlier work
[1] = tested on: primary human bronchial epithelium; experiment: Mucin protein secretion from NHBE cells, ELISA; type: cell-based; details: for mucin secretion: 1×10^-7 M, FIG. 1(b)
Protocol: (§1) Transactivation of mucin genes in normal primary human bronchial epithelial cells (NHBE) was performed as described by Gray et al. Am. J. Respir. Biol., 14:104-112 (1996). Primary human airway epithelial cells were cultured on porous Transwell membranes (Corning/Costar) in defined media in the absence of all-trans retinoic acid (ATRA) for 7 days. After seven days, fresh media±ATRA or selective retinoid, was added to the basal culture compartment to create an air-liquid interface (ALI). ATRA and/or selective retinoids were used at a concentration or 1×10^-7 M. The selective retinoids used were: Compound X (RARα selective agonist), RXR agonist (SRI 11217) and anti-AP1 retinoid (SRI 11302). After seven additional days of culture the media was harvested for analysis of secreted mucin gene product using specific ELISA as previously described (Gray et al). The cell layer was lysed using a guanidinium-based buffer (TRIZOL/Sigma) for RNA extraction and analysis. Amplification of MUC2 and MUC5AC RNA was performed by standard RT-PCR using appropriate selective primer and mimics pairs (Guzman et al., Am. J. Physiol. 271 (Lung Cell Mol Physiol.15): L1023-L1028 (1996) and PCR products were detected in ethedium bromide stained agarose gels.
Corresponding mucin protein secretion data are shown in FIG. 1(b) as ELISA data representing results from separate samples run in triplicate. Data presented as mean±sem. The mucin protein secretion data were consistent with gene induction results.
(§2) Transactivation of mucin genes in NHBE was performed as described above. On days 7 through day 14 cells were cultured with 1×10^-6 M RARα antagonist, Compound Z, alone or in combination with 1×10^-7 M ATRA or RARα selective agonist, Compound X. The effects on mucin gene transactivation and expression were determined by RT-PCR and ELISA as described above. RARα selective antagonist, Compound Z, had no effect on MUC2 or MUC5AC gene expression.

MUC5AC [2] = experiment: MUC5AC gene transactivation in NHBE cells, RT-PCR; type: cell-based, human; details: for MUC5AC gene induction: 1×10^-7 M, Example 1; for MUC5AC gene expression, compound alone: Example 3, antagonist 1×10^-6 M or agonist 1×10^-7 M
Protocol: as §1
(§3) Transactivation of mucin genes in NHBE was performed as described above with the exception that media was supplemented with RAR alpha (RARα), beta (RARβ), or gamma (RARγ)-selective retinoids on days 7 through day 14. The RAR alpha (RARα), beta (RARβ), or gamma (RARγ)-selective retinoids were compounds X, Y and CD-437 respectively.
as §2

MUC2 [3] = experiment: MUC2 gene transactivation in NHBE cells, RT-PCR; type: cell-based, human; details: for MUC2 gene induction: 1×10^-7 M, Example 1; for MUC2 gene expression, compound alone: Example 3, antagonist 1×10^-6 M or agonist 1×10^-7 M
Protocol: as §1, §3, §2

[4] = tested on: goblet cell hyperplasia in rats; experiment: LPS-induced goblet cell hyperplasia, morphometric analysis; type: in vivo, rat; details: ATRA 2 mg/kg ip once daily
Protocol: (§4) All-trans retinoic acid (ATRA) was evaluated for its effects on mucous hypersecretion in the rat model of endotoxin/lipopolysacharide (LPS)-induced lung inflammation (Steiger et al. J. Am. Respir. Cell Mol. Biol., 12:307-314 (1995)). Animals were divided into treatment groups of approximately six. Lung inflammation was induced in male Long Evans rats by repeated instillation of LPS (LPS derived from Pseudomonas aeriginos; Sigma Chemical) 400 μg/Kg/dose/day for three days. ATRA was dissolved in DMSO (20 mg/ml) and stored at -20 C. Fresh working stocks were prepared fresh daily by dilution in PBS to a final concentration of 2 mg/ml. Animals treated with ATRA (2 mg/kg ip) were dosed once daily by intraperitoneal injection, starting 24 hours prior to the first LPS challenge. Two control groups were included in the study, treatment with vehicle (DMSO/PBS) followed by LPS and treatment with ATRA alone. Animals were sacrificed 24 hours after the last LPS challenge by exsanguination under deep anesthesia.
After lavage the lungs were perfused with 10% neutral buffered formalin by intratracheal instillation at a constant rate (5 ml at 1 ml/min). The left lobe was excised and immersed in fixative for 24 hours prior to processing. Standard methods were used to prepare 5 μm paraffin sections. […]

[5] = tested on: mucin gene expression in human epithelial cells; experiment: Mucin gene expression (MUC2 and MUC5AC) in human epithelial cells; type: cell-based
Protocol: as §1, §2

[6] = tested on: RAR subtypes (α, β, and γ); details: cited from earlier work
[7] = tested on: LPS-induced mucin hypersecretion in rats; experiment: Mucous hypersecretion in rat model of LPS-induced lung inflammation; type: in vivo; details: for mucous hypersecretion in rats: 10 mg/kg daily starting 72 hours prior to LPS challenge
Protocol: as §4
The lungs were lavaged with phosphate buffered saline (2×5 ml) to wash out mucous layer. The lavage fluid (BAL) was centrifuged for 10 min at 500×g and the cell-free supernate was frozen and stored -20° C. until analyzed for secreted mucin by Alcian-blue/PAS dot blot assay to determine relative contribution of neutral and acidic mucins. Standard curves were generated using bovine intestinal mucins (Sigma) TYPE 1 (Alc. blue/acidic mucins) and TYPE II (PAS+/neutral mucin). Each sample was assayed in triplicate and data presented as […] total mucin. (FIG. 4b)
The effect of RARα selective antagonists Ia and Ib on mucous hypersecretion in the rat and mouse models of LPS-induced lung inflammation was evaluated according to the procedure of Example 4. Animals were treated with compound (10 mg/kg) or vehicle daily starting 72 hours prior to LPS challenge.

[8] = tested on: LPS-induced mucous hypersecretion in mice; experiment: Mucous hypersecretion in mouse model of LPS-induced lung inflammation; type: in vivo; details: 10 mg/kg daily starting 72 hours prior to LPS challenge
Protocol: as §4, with “Two control groups were included in the study, treatment with vehicle (DMSO/PBS) followed by LPS and treatment with ATRA alone. Animals were sacrificed 24 hours after the last LPS challenge by exsanguination under deep anesthesia.” left out
The lungs were lavaged with phosphate buffered saline (2×5 ml) to wash out mucous layer. The lavage fluid (BAL) was centrifuged for 10 min at 500×g and the cell-free supernate was frozen and stored -20° C. until analyzed for secreted mucin by Alcian-blue/PAS dot blot assay to determine relative contribution of neutral and acidic mucins. […]
The effect of RARα selective antagonists Ia and Ib on mucous hypersecretion in the rat and mouse models of LPS-induced lung inflammation was evaluated according to the procedure of Example 4. […]

MUC5AC [9] = experiment: LPS-stimulated MUC5AC mRNA transcription, dose response; type: cell-based; details: Homo sapiens, normalized to glyceraldehyde phosphate 3-dehydrogenase, read-out: inhibition of MUC5AC gene transcription IC50
Protocol: (§5) An in vitro assay was established to screen retinoid-based compounds for their effects on LPS-induced mucin gene expression using a continuous human lung epithelial cell line, NIH-292. NIH-292 cells were cultured in standard T-75 tissue culture flasks in DMEM/F12 media containing 10% fetal bovine serum (FBS). Upon confluence the media was changed to defined medium Optimem (Sigma) supplemented with 1% FBS 24 hours prior to challenge with 10 μg/ml LPS (P. aeriginos, Sigma Chemical). RAR selective antagonist, Compound Z, was added 24 hours prior to LPS challenge. ATRA and specific retinoids were prepared as DMSO stocks. Cells were harvested 6 or 24 hours after LPS challenge using a guanidinium-basedbuffer (TRIZOL/Sigma) for RNA extraction and analysis. Amplification of β-actin, MUC1, MUC2 and MUC5AC specific RNA was performed by using an automated fluorescent detection method for quantitation of real time RT-PCR (TAQMAN, Applied Biosystems/Perkin Elmer). Standard curves were generated for each of the relevant mucin RNAs using control plasmid. Analysis was performed in triplicate from duplicate samples.
Cells were stimulated with LPS in the presence or absence of Ia. MUC5AC specific mRNA was measured and is graphed normalized relative to glyceraldehyde phosphate 3-dehydrogenase control.

NIH-292 cells = experiment: LPS-induced mucin gene expression in NIH-292 cells, real time RT-PCR; type: cell-based, human; details: added 24 hours prior to 10 μg/ml LPS
Protocol: as §5

MUC2 [10] = details: G. An, et al.; cited from earlier work
[11] = 1×10^-6 M antagonist with 1×10^-7 M ATRA or Compound X
[12] = even at the highest dose, 1×10^-6 M, Example 2

Q: For `CC1=C(/C=C/C(C)=C\C=C\C(C)=C\C(=O)O)C(C)(C)CCC1` [9-cis isomer of retinoic acid], which “binding to RXR receptors” value (RXR receptors) is on record?
A: Its value is “bind instead to the 9-cis isomer of retinoic acid”.

Q: What does the source list for `CC1=C(/C=C/C(C)=C/C=C/C(C)=C/C(=O)O)C(C)(C)CCC1` [ATRA, All-trans retinoic acid]?
A: mucin secretion [1]: increase in mucin secretion; MUC5AC gene induction (MUC5AC [2]): induce both MUC2 and MUC5AC gene induction; MUC5AC gene expression, compound alone (MUC5AC [2]): potent inducers; MUC2 gene induction (MUC2 [3]): induce both MUC2 and MUC5AC gene induction; MUC2 gene expression, compound alone (MUC2 [3]): potent inducers; binding to RXR receptors (RXR receptors): do not bind to all-trans retinoic acid; LPS-induced goblet cell hyperplasia [4]: enhancement; mucin gene expression, specifically MUC2 and MUC5AC ([5]; retinoid agonists): transactivates mucin gene expression; binding to the three RAR subtypes [6]: binds with approximately equal affinity to all the three RAR subtypes; LPS-induced mucin hypersecretion in rats ([7]; ATRA 2 mg/kg ip once daily): enhancement

Q: For `CCCCCCCOc1cc2c(cc1/C(C)=C/c1ccc(C(=O)O)cc1)C(C)(C)CCS2(=O)=O` [Compound Ia], which “inhibition of ATRA- or Compound X-induced mucin protein secretion” value ([1]; 1×10^-6 M antagonist with 1×10^-7 M ATRA or Compound X, FIG. 3b) is on record?
A: The value was “completely inhibited”.

Q: And the “inhibition of ATRA- or Compound X-induced MUC5AC” value (MUC5AC [2]; [11])?
A: Its value is “completely inhibited”.

Q: What about the “MUC5AC gene expression, compound alone” value (MUC5AC [2]) of the same compound?
A: The value was “no effect”.

Q: What about the “inhibition of ATRA- or Compound X-induced MUC2” value (MUC2 [3]; [11]) of the same compound?
A: Its value is “completely inhibited”.

Q: And the “MUC2 gene expression, compound alone” value (MUC2 [3])?
A: Its value is “no effect”.

Q: What about the “mucous hypersecretion in mice” value [8] of the same compound?
A: Its value is “reduced the amount of mucous hypersecretion relative to vehicle”.

Q: And the IC50 (MUC5AC [9])?
A: The IC50 was less than 10 nM.

Q: And the “LPS induced mucin gene expression” value (NIH-292 cells)?
A: Its value is “inhibit LPS induced mucin gene expression”.

Q: What about the “inhibition of retinoid induced mucin gene expression” value [5] of the same compound?
A: The value was “inhibited”.

Q: And the “mucous hypersecretion in rats” value [7]?
A: Its value is “reduced the amount of mucous hypersecretion relative to vehicle”.

Q: For `CCCCCCCOc1cc2c(cc1/C(C)=C/C=C/C(C)=C/C(=O)O)C(C)(C)CCS2(=O)=O` [Compound Ib], which “mucous hypersecretion in mice” value [8] is on record?
A: Its value is “reduced the amount of mucous hypersecretion relative to vehicle”.

Q: What about the “inhibition of retinoid induced mucin gene expression” value [5] of the same compound?
A: Its value is “inhibited”.

Q: And the “mucous hypersecretion in rats” value [7]?
A: The value was “reduced the amount of mucous hypersecretion relative to vehicle”.

Q: Which mucin secretion [1] does the source give for `CC1(C)CCC(C)(C)c2cc(C(=O)Nc3ccc(C(=O)O)cc3)ccc21` [Compound X] here?
A: Its mucin secretion is “increase in mucin secretion”.

Q: And the MUC5AC gene induction (MUC5AC [2])?
A: Its MUC5AC gene induction is “induce both MUC2 and MUC5AC gene induction”.

Q: What about the MUC5AC gene activation (MUC5AC [2]; 1×10^-9 M, Example 2) of the same compound?
A: The MUC5AC gene activation was “most potent inducer”.

Q: And the “MUC5AC gene expression, compound alone” value (MUC5AC [2])?
A: The value was “potent inducers”.

Q: What about the “Induction of MUC5AC” value (MUC5AC [2]; [12]) of the same compound?
A: The value was “minimal”.

Q: What about the MUC2 gene induction (MUC2 [3]) of the same compound?
A: The MUC2 gene induction was “induce both MUC2 and MUC5AC gene induction”.

Q: And the MUC2 gene activation (MUC2 [3]; 1×10^-9 M, Example 2)?
A: Its MUC2 gene activation is “most potent inducer”.

Q: What about the “MUC2 gene expression, compound alone” value (MUC2 [3]) of the same compound?
A: The value was “potent inducers”.

Q: And the “Induction of MUC2” value (MUC2 [3]; [12])?
A: The value was “minimal”.

Q: Which MUC5AC gene induction (MUC5AC [2]) does the source give for `CC(C)=C(c1ccc(C(=O)O)cc1)c1ccc2c(c1)C(C)(C)CCC2(C)C` [SRI 11217, 4-[1-(5,6,7,8-tetrahydro-5,5,8,8,-tetramethyl-2-naphthalenyl)-2-methylpropenyl]-benzoic acid] here?
A: Its MUC5AC gene induction is “no effect on induction of either gene”.

Q: And the MUC2 gene induction (MUC2 [3])?
A: Its MUC2 gene induction is “no effect on induction of either gene”.

Q: For `CC1=C(/C=C/C(C)=C/C=C/C(C)=C/CO)C(C)(C)CCC1` [retinol], which “expression of the MUC2 gene” value (MUC2 [10]) is on record?
A: Its value is “down-regulated”.
